Assay results as given in ChEMBL document CHEMBL1201862, “PubChem BioAssay data set” (2004).
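48-hour exposure; five concentrations; linearly interpolated endpoints. The concentration for 50% growth inhibition is given as GI50.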 The source made the active and inactive calls. Cut-off read from the data, not from the text of the source: active = GI50 up to about 1.1 µM and inactive = higher.

What was measured:
Assay in all cases: inhibition of tumour cell growth, NCI panel, 48 h
786-0 = test system: 786-0
CCRF-CEM = test system: CCRF-CEM
COLO 205 = test system: COLO 205
HL-60 = test system: HL-60
HOP-62 = test system: HOP-62
HT-29 = test system: HT-29
IGROV-1 = test system: IGROV-1
M14 = test system: M14
MCF7 = test system: MCF7
Malme-3M = test system: Malme-3M
NCI-H460 = test system: NCI-H460
NCI/ADR-RES = test system: NCI/ADR-RES
OVCAR-3 = test system: OVCAR-3
RPMI-8226 = test system: RPMI-8226
SK-OV-3 = test system: SK-OV-3
SNB-19 = test system: SNB-19
SR = test system: SR
TK-10 = test system: TK-10
UACC-62 = test system: UACC-62
UO-31 = test system: UO-31

| SMILES | GI50 (786-0) | GI50 (CCRF-CEM) | GI50 (COLO 205) | GI50 (HL-60) | GI50 (HOP-62) | GI50 (HT-29) | GI50 (IGROV-1) | GI50 (M14) | GI50 (MCF7) | GI50 (Malme-3M) | GI50 (NCI-H460) | GI50 (NCI/ADR-RES) | GI50 (OVCAR-3) | GI50 (RPMI-8226) | GI50 (SK-OV-3) | GI50 (SNB-19) | GI50 (SR) | GI50 (TK-10) | GI50 (UACC-62) | GI50 (UO-31) |
| --- | --- | --- | --- | --- | --- | --- | --- | --- | --- | --- | --- | --- | --- | --- | --- | --- | --- | --- | --- | --- |
| CC1C(C)(C)C23CC12C1(OCCO1)C3Br (stereo not given) | > 100 µM (inactive) | > 100 µM (inactive) | > 100 µM (inactive) | > 100 µM (inactive) | > 100 µM (inactive) | > 100 µM (inactive) | > 100 µM (inactive) | > 100 µM (inactive) | > 100 µM (inactive) | > 100 µM (inactive) | > 100 µM (inactive) | > 100 µM (inactive) | > 100 µM (inactive) | > 100 µM (inactive) | > 100 µM (inactive) | > 100 µM (inactive) | > 100 µM (inactive) | > 100 µM (inactive) | > 100 µM (inactive) | 11.2 µM (inactive) |
| O=C(/C=C/c1ccccc1)CSc1nc2ccc(I)cc2c(=O)n1Cc1ccccc1 | 14.5 µM (inactive) | 11.3 µM (inactive) | 17.5 µM (inactive) | 17.1 µM (inactive) | 14.3 µM (inactive) | 26.3 µM (inactive) | 7.26 µM (inactive) | 55.1 µM (inactive) | 28.6 µM (inactive) | 23.6 µM (inactive) | 15.6 µM (inactive) | 14 µM (inactive) | 12.4 µM (inactive) | 13.6 µM (inactive) | 29.6 µM (inactive) | 42.6 µM (inactive) | 8.81 µM (inactive) | 28.8 µM (inactive) | 35.2 µM (inactive) | 0.13 µM (active) |
| O=C(NC(=O)c1ccccc1[N+](=O)[O-])Nc1ccc(Oc2ncc(Br)cn2)c(Cl)c1 | 0.0215 µM (active) | 0.0284 µM (active) | 0.046 µM (active) | 0.00383 µM (active) | 0.0249 µM (active) | 0.0175 µM (active) | 0.0258 µM (active) | < 0.016 µM (active) | 0.0265 µM (active) | 0.0138 µM (active) | 0.0252 µM (active) | 0.0198 µM (active) | 0.0252 µM (active) | 0.0256 µM (active) | 0.0269 µM (active) | 0.0278 µM (active) | 0.0296 µM (active) | 0.0362 µM (active) | 0.019 µM (active) | 0.0281 µM (active) |
| CCC(Nc1ncnc2nc[nH]c12)C(=O)O (stereo not given) | > 100 µM (inactive) | > 100 µM (inactive) | > 100 µM (inactive) | > 100 µM (inactive) | > 100 µM (inactive) | > 100 µM (inactive) | > 100 µM (inactive) | > 100 µM (inactive) | > 100 µM (inactive) | > 100 µM (inactive) | > 100 µM (inactive) | > 100 µM (inactive) | > 100 µM (inactive) | > 100 µM (inactive) | > 100 µM (inactive) | > 100 µM (inactive) | > 100 µM (inactive) | > 100 µM (inactive) | > 100 µM (inactive) | > 100 µM (inactive) |
| COC12COC(=O)C1C(c1ccc3c(c1)OCO3)c1cc3c(cc1O2)OCO3 (stereo not given) | 25.1 µM (inactive) | 8.57 µM (inactive) | 9.42 µM (inactive) | 5.28 µM (inactive) | 16 µM (inactive) | 6.44 µM (inactive) | 20.8 µM (inactive) | 13 µM (inactive) | 14.3 µM (inactive) | 40.7 µM (inactive) | 10.5 µM (inactive) | 5.3 µM (inactive) | 9.62 µM (inactive) | 14.4 µM (inactive) | 14.2 µM (inactive) | 54.1 µM (inactive) | 5.38 µM (inactive) | 29.2 µM (inactive) | 15.8 µM (inactive) | 28.4 µM (inactive) |
| N#CCCN(CCCN(CCCN(C(=O)Nc1ccccc1)c1ccccc1)C(=O)Nc1ccccc1)C(=O)Nc1ccccc1 | > 8.75 µM (inactive) | 6.14 µM (inactive) | > 8.75 µM (inactive) | > 8.75 µM (inactive) | > 8.75 µM (inactive) | > 8.75 µM (inactive) | > 8.75 µM (inactive) | > 8.75 µM (inactive) | > 8.75 µM (inactive) | > 8.75 µM (inactive) | > 8.75 µM (inactive) | > 8.75 µM (inactive) | > 8.75 µM (inactive) | 3.44 µM (inactive) | > 8.75 µM (inactive) | > 8.75 µM (inactive) | 0.998 µM (active) | > 8.75 µM (inactive) | > 8.75 µM (inactive) | > 8.75 µM (inactive) |
| C[N+]1(C)C/C(=C\C=C\c2ccccc2)C(=O)/C(=C/C=C/c2ccccc2)C1 | 17.8 µM (inactive) | 1.78 µM (inactive) | 0.773 µM (active) | 1.02 µM (active) | 21.3 µM (inactive) | 9.53 µM (inactive) | 2.99 µM (inactive) | 16.3 µM (inactive) | 10.2 µM (inactive) | 16 µM (inactive) | 17.1 µM (inactive) | > 100 µM (inactive) | 8.61 µM (inactive) | 2.07 µM (inactive) | 37.7 µM (inactive) | 6.08 µM (inactive) | 3.1 µM (inactive) | 33.4 µM (inactive) | 3.46 µM (inactive) | 85.5 µM (inactive) |
| Cc1cccc(/C=N\NC(=S)N2CCCCC2)n1 | 0.027 µM (active) | < 0.01 µM (active) | < 0.01 µM (active) | 0.0112 µM (active) | 0.0776 µM (active) | < 0.01 µM (active) | < 0.01 µM (active) | < 0.01 µM (active) | < 0.01 µM (active) | 0.867 µM (active) | 0.22 µM (active) | 0.0205 µM (active) | < 0.01 µM (active) | 0.0128 µM (active) | 0.685 µM (active) | 0.665 µM (active) | 0.019 µM (active) | 0.0156 µM (active) | 0.383 µM (active) | 0.216 µM (active) |
| Cn1cc[n+](-c2cc(=O)n(C)c(=O)[n-]2)c1 | > 100 µM (inactive) | > 100 µM (inactive) | 96.4 µM (inactive) | > 100 µM (inactive) | > 100 µM (inactive) | > 100 µM (inactive) | > 100 µM (inactive) | > 100 µM (inactive) | 93.5 µM (inactive) | > 100 µM (inactive) | > 100 µM (inactive) | > 100 µM (inactive) | 80 µM (inactive) | 96.8 µM (inactive) | > 100 µM (inactive) | > 100 µM (inactive) | 27.9 µM (inactive) | 31.8 µM (inactive) | > 100 µM (inactive) | 44.3 µM (inactive) |
| O=C(O)c1ccc(Cc2ccccc2C(=O)O)cc1 | > 100 µM (inactive) | > 100 µM (inactive) | > 100 µM (inactive) | > 100 µM (inactive) | > 100 µM (inactive) | > 100 µM (inactive) | > 100 µM (inactive) | > 100 µM (inactive) | > 100 µM (inactive) | > 100 µM (inactive) | > 100 µM (inactive) | > 100 µM (inactive) | > 100 µM (inactive) | > 100 µM (inactive) | > 100 µM (inactive) | > 100 µM (inactive) | > 100 µM (inactive) | > 100 µM (inactive) | > 100 µM (inactive) | > 100 µM (inactive) |
| C[Si](C)(C)C#Cc1cc(-c2nc3ccccc3s2)ccc1N | 17 µM (inactive) | 21.7 µM (inactive) | 15.5 µM (inactive) | 23.3 µM (inactive) | 16.2 µM (inactive) | 20.1 µM (inactive) | < 0.01 µM (active) | 16.5 µM (inactive) | 0.491 µM (active) | 3.35 µM (inactive) | 15.9 µM (inactive) | 17.5 µM (inactive) | 17.3 µM (inactive) | 21.8 µM (inactive) | 19 µM (inactive) | 18.7 µM (inactive) | 26.4 µM (inactive) | 11.7 µM (inactive) | 16.3 µM (inactive) | 13.4 µM (inactive) |
| O=C1C([N-]S(=O)(=O)c2ccccc2)=C([n+]2ccc(Cc3ccccc3)cc2)C(=O)c2ccccc21 | 1.73 µM (inactive) | 29.7 µM (inactive) | 0.0644 µM (active) | 1.38 µM (inactive) | 1.75 µM (inactive) | 0.263 µM (active) | 1.79 µM (inactive) | 1.32 µM (inactive) | 0.435 µM (active) | 0.376 µM (active) | 0.535 µM (active) | 2.83 µM (inactive) | 0.142 µM (active) | 1.65 µM (inactive) | 6.12 µM (inactive) | 1.71 µM (inactive) | 2.59 µM (inactive) | 1.66 µM (inactive) | 1.15 µM (inactive) | 2.13 µM (inactive) |
| N=C(N)N/N=C/c1c(Cl)nc2sccn12 | 17.1 µM (inactive) | 21.1 µM (inactive) | 14.9 µM (inactive) | 17.4 µM (inactive) | 21.5 µM (inactive) | 17.3 µM (inactive) | 53.5 µM (inactive) | 15.5 µM (inactive) | 26.9 µM (inactive) | 23.3 µM (inactive) | 16.7 µM (inactive) | 55.2 µM (inactive) | 24.1 µM (inactive) | 19.4 µM (inactive) | 60.1 µM (inactive) | 35.8 µM (inactive) | 22.9 µM (inactive) | 52.2 µM (inactive) | 31.8 µM (inactive) | 34.7 µM (inactive) |
| COc1ccc(C(O)/C(=N/N)c2nc3ccc(Cl)cc3nc2O)cc1 (stereo not given) | > 100 µM (inactive) | > 100 µM (inactive) | > 100 µM (inactive) | > 100 µM (inactive) | > 100 µM (inactive) | > 100 µM (inactive) | > 100 µM (inactive) | > 100 µM (inactive) | 62.7 µM (inactive) | > 100 µM (inactive) | > 100 µM (inactive) | > 100 µM (inactive) | > 100 µM (inactive) | 97.7 µM (inactive) | > 100 µM (inactive) | > 100 µM (inactive) | > 100 µM (inactive) | > 100 µM (inactive) | > 100 µM (inactive) | > 100 µM (inactive) |
